Source: patent US11174253B2, “Compound and pharmaceutical composition containing the same” (ALPHALA CO., LTD., priority 2017, dated 2021)

System: hepatocellular carcinoma cell line Hep3B
Assay: Growth inhibition of Hep3B cells, 48 hr treatment, Hoechst 33342 nucleus count (GE InCell 2200)
Type: cell-based
Conditions: Homo sapiens, Table 5, ratio of number of tumor cells treated with 10 μM compound to non-treated cells
Method: The potency of selected compounds was defined by the growth inhibition ability to the hepatocellular carcinoma cell line Hep3B. The Hep3B cells were treated with selected compounds for 48 hr under 37° C., 5% CO2, and 95% relative humidity.
The number of treated cells was determined by GE InCell 2200 system, and treated cells were stained with Hoechst 33342 which can reveal the remained nucleus in culture plate. The proportion of survival cells then were calculated with the ratio of treated/non-treated cells. The growth inhibition/cytotoxic effect of selected compounds were evaluated by the following protocol of NCI-60 screening platform. The human tumor cell lines are plating on a 96 well plate in a fixed density 24 hr prior compound treatment. Compounds with multiple concentrations are then added into each well for further 48 hr incubation. Cell viability is assessed by MTS method and the potency of compound is represented by GI50 and LC50 calculated by MTS result.
Herein, the “Ratio in 10 μM (%)” in the following Tables 1-6 refers to the ratio of the number of tumor cells treated with 10 μM of selected compounds to the number of non-treated tumer cells.

Structure (SMILES) | viability at 10 µM [%]
CCOc1ccccc1-c1nc(NC(=O)c2ccc([N+](=O)[O-])s2)sc1Oc1ccccc1 [Compound 5-5, N-(4-(2-ethoxyphenyl)-5-phenoxythiazol-2-yl)-5-nitrothiophene-2-carboxamide] | 47
CCOc1ccc(-c2nc(NC(=O)c3ccc([N+](=O)[O-])s3)sc2Oc2ccccc2)c(OCC)c1 [Compound 5-12, N-(4-(2,4-diethoxyphenyl)-5-phenoxythiazol-2-yl)-5-nitrothiophene-2-carboxamide] | 46
CCCOc1ccc(-c2nc(NC(=O)c3ccc([N+](=O)[O-])s3)sc2Oc2cccnc2)cc1 [Compound 5-13, 5-nitro-N-(4-(4-propoxyphenyl)-5-(pyridin-3-yloxy)thiazol-2-yl)thiophene-2-carboxamide] | 53
COCCOc1ccc(-c2nc(NC(=O)c3ccc([N+](=O)[O-])s3)sc2Oc2cccnc2)cc1 [Compound 5-15, N-(4-(4-(2-methoxyethoxy)phenyl)-5-(pyridin-3-yloxy)thiazol-2-yl)-5-nitrothiophene-2-carboxamide] | 54
COCCOc1ccc(-c2nc(NC(=O)c3ccc([N+](=O)[O-])s3)sc2Oc2ccccc2)cc1 [Compound 5-16, N-(4-(4-(2-methoxyethoxy)phenyl)-5-phenoxythiazol-2-yl)-5-nitrothiophene-2-carboxamide] | 59
CCCOc1ccc(-c2nc(NC(=O)c3ccc([N+](=O)[O-])s3)sc2Oc2ccccc2OCC)cc1 [Compound 5-21, N-(5-(2-ethoxyphenoxy)-4-(4-propoxyphenyl)thiazol-2-yl)-5-nitrothiophene-2-carboxamide] | 28
CCOc1ccc(-c2nc(NC(=O)c3ccc([N+](=O)[O-])s3)sc2Oc2ccc(C(F)(F)F)cc2)cc1 [Compound 5-25, N-(4-(4-ethoxyphenyl)-5-(4-(trifluoromethyl)phenoxy)thiazol-2-yl)-5-nitrothiophene-2-carboxamide] | 32
CCCOc1ccc(-c2nc(NC(=O)c3ccc([N+](=O)[O-])s3)sc2Oc2cc(C)c(Br)c(C)c2)cc1 [Compound 5-28, N-(5-(4-bromo-3,5-dimethylphenoxy)-4-(4-propoxyphenyl)thiazol-2-yl)-5-nitrothiophene-2-carboxamide] | 32
O=C(Nc1nc(-c2ccc(F)cc2)c(Oc2ccccc2C(F)(F)F)s1)c1ccc([N+](=O)[O-])s1 [Compound 5-31, N-(4-(4-fluorophenyl)-5-(2-(trifluoromethyl)phenoxy)thiazol-2-yl)-5-nitrothiophene-2-carboxamide] | 48
O=C(Nc1nc(-c2ccc(F)cc2)c(Oc2ccc(OC(F)(F)F)cc2)s1)c1ccc([N+](=O)[O-])s1 [Compound 5-33, N-(4-(4-fluorophenyl)-5-(4-(trifluoromethoxy)phenoxy)thiazol-2-yl)-5-nitrothiophene-2-carboxamide] | 40
COc1ccc(-c2nc(NC(=O)c3ccc([N+](=O)[O-])s3)sc2Oc2ccccc2)cc1 [Compound 5-34, N-(4-(4-methoxyphenyl)-5-phenoxythiazol-2-yl)-5-nitrothiophene-2-carboxamide] | 54
CNC(=O)c1ccc(-c2nc(NC(=O)c3ccc([N+](=O)[O-])s3)sc2Oc2ccc(F)cc2)cc1 [Compound 5-35, N-(5-(4-fluorophenoxy)-4-(4-(methylcarbamoyl)phenyl)thiazol-2-yl)-5-nitrothiophene-2-carboxamide] | 68
CCOc1cc(OCC)cc(-c2nc(NC(=O)c3ccc([N+](=O)[O-])s3)sc2Oc2ccccc2)c1 [Compound 5-36, N-(4-(3,5-diethoxyphenyl)-5-phenoxythiazol-2-yl)-5-nitrothiophene-2-carboxamide] | 39
CCCOc1ccc(-c2nc(NC(=O)c3ccc([N+](=O)[O-])s3)sc2Oc2ccc(F)cc2F)cc1 [Compound 5-37, N-(5-(2,4-difluorophenoxy)-4-(4-propoxyphenyl)thiazol-2-yl)-5-nitrothiophene-2-carboxamide] | 38
CCCOc1ccc(-c2nc(NC(=O)c3ccc([N+](=O)[O-])s3)sc2Oc2ccc(C#N)cc2OC)cc1 [Compound 5-40, N-(5-(4-cyano-2-methoxyphenoxy)-4-(4-propoxyphenyl)thiazol-2-yl)-5-nitrothiophene-2-carboxamide] | 46
CC(C)(C)C#Cc1ccc(-c2nc(NC(=O)c3ccc([N+](=O)[O-])s3)sc2Oc2ccccc2)s1 [Compound 5-41, N-(4-(5-(3,3-dimethylbut-1-yn-1-yl)thiophen-2-yl)-5-phenoxythiazol-2-yl)-5-nitrothiophene-2-carboxamide] | 41
O=C(Nc1nc(-c2ccc(Br)s2)c(Oc2ccccc2)s1)c1ccc([N+](=O)[O-])s1 [Compound 5-42, N-(4-(5-bromothiophen-2-yl)-5-phenoxythiazol-2-yl)-5-nitrothiophene-2-carboxamide] | 55
CCCOc1ccc(-c2nc(NC(=O)c3ccc([N+](=O)[O-])s3)sc2Oc2ccc(Cl)c(Cl)c2)cc1 [Compound 5-44, N-(5-(3,4-dichlorophenoxy)-4-(4-propoxyphenyl)thiazol-2-yl)-5-nitrothiophene-2-carboxamide] | 41
CCCOc1ccc(-c2nc(NC(=O)c3ccc([N+](=O)[O-])s3)sc2Oc2ccc(F)cc2Cl)cc1 [Compound 5-45, N-(5-(2-chloro-4-fluorophenoxy)-4-(4-propoxyphenyl)thiazol-2-yl)-5-nitrothiophene-2-carboxamide] | 28
CN(C)CC#Cc1ccc(-c2nc(NC(=O)c3ccc([N+](=O)[O-])s3)sc2Oc2ccccc2)s1 [Compound 5-46, N-(4-(5-(3-(dimethylamino)prop-1-yn-1-yl)thiophen-2-yl)-5-phenoxythiazol-2-yl)-5-nitrothiophene-2-carboxamide] | 53
CCCOc1ccc(-c2nc(NC(=O)c3ccc([N+](=O)[O-])o3)sc2Oc2ccc(F)cc2)cc1 [Compound 5-49, N-(5-(4-fluorophenoxy)-4-(4-propoxyphenyl)thiazol-2-yl)-5-nitrofuran-2-carboxamide] | 41
CCCOc1ccc(-c2nc(NC(=O)c3ccc([N+](=O)[O-])s3)sc2Oc2cc(F)cc(F)c2)cc1 [Compound 5-50, N-(5-(3,5-difluorophenoxy)-4-(4-propoxyphenyl)thiazol-2-yl)-5-nitrothiophene-2-carboxamide] | 42
CCOc1ccc(-c2nc(NC(=O)c3ccc([N+](=O)[O-])s3)sc2Oc2ccccc2)cn1 [Compound 5-51, N-(4-(6-ethoxypyridin-3-yl)-5-phenoxythiazol-2-yl)-5-nitrothiophene-2-carboxamide] | 43
CCCOc1ccc(-c2nc(NC(=O)c3ccc([N+](=O)[O-])s3)sc2Oc2cccc3cccnc23)cc1 [Compound 5-52, 5-nitro-N-(4-(4-propoxyphenyl)-5-(quinolin-8-yloxy)thiazol-2-yl)thiophene-2-carboxamide] | 41
CCOc1ccc(-c2nc(NC(=O)c3ccc([N+](=O)[O-])s3)sc2Oc2ccccc2)c(F)c1 [Compound 5-53, N-(4-(4-ethoxy-2-fluorophenyl)-5-phenoxythiazol-2-yl)-5-nitrothiophene-2-carboxamide] | 41
